This note sets out measurements from patent US20090036352A1, “DRUG DELIVERY SYSTEMS FOR THE PREVENTION AND TREATMENT OF VASCULAR DISEASES COMPRISING RAPAMYCIN AND DERIVATIVES THEREOF” (priority 2002, published 2009).

Molecules are shown by their SMILES.

In data set [1] the test system is rat carotid artery balloon injury model. Description: Inhibition of late neointimal lesion formation in the 28 day rat carotid artery balloon injury model. The data set is classed as in vivo. To be noted: for percent inhibition of neointimal lesion formation: oral, 28 days post-balloon injury. As for the experimental part:
A1. Inhibition of Late Neointimal Lesion Formation in the 28 Day Rat Carotid Artery Balloon Injury Model
Compounds of formula I are tested in the following rat model.
Rats are dosed orally with placebo or a compound of formula I. Daily dosing starts 3 days prior to surgery and continues for 31 days. Rat carotid arteries are balloon injured using a method described by Clowes et al. Lab. Invest. 1983; 49; 208-215. Following sacrifice at 28 days post-balloon injury, carotid arteries are removed and processed for histologic and morphometric evaluation. […] For example for 40-O-(2-hydroxyethyl)-rapamycin administered at 0.5, 1.0, and 2.0 mg/kg, the percent inhibition is similar at all three doses: inhibition is 31% at the lowest dose (0.5 mg/kg) and 39% at the highest dose (2.0 mg/kg). Compounds of formula I, e.g. 40-O-(2-hydroxyethyl)-rapamycin, have the beneficial effect to inhibit lesions at 4 weeks post-ballooning.

In data set [2] the test system is New Zealand White rabbit iliac arteries. Kind of data set: Inhibition of restenosis at 28 days in the rabbit iliac stent model. The data set is classed as in vivo. As to the method:
A.2 Inhibition of Restenosis at 28 Days in the Rabbit Iliac Stent Model
A combined angioplasty and stenting procedure is performed in New Zealand White rabbit iliac arteries. Iliac artery balloon injury is performed by inflating a 3.0×9.0 mm angioplasty balloon in the mid-portion of the artery followed by “pull-back” of the catheter for 1 balloon length. Balloon injury is repeated 2 times, and a 3.0×12 mm stent is deployed at 6 atm for 30 seconds in the iliac artery. Balloon injury and stent placement is then performed on the contralateral iliac artery in the same manner. A post-stent deployment angiogram is performed. All animals receive oral aspirin 40 mg/day daily as anti-platelet therapy and are fed standard low-cholesterol rabbit chow. Twenty-eight days after stenting, animals are anesthetized and euthanized and the arterial tree is perfused at 100 mmHg with lactated Ringer's for several minutes, then perfused with 10% formalin at 100 mmHg for 15 minutes. The vascular section between the distal aorta and the proximal femoral arteries is excised and cleaned of periadventitial tissue. The stented section of artery is embedded in plastic and sections are taken from the proximal, middle, and distal portions of each stent. All sections are stained with hematoxylin-eosin and Movat pentachrome stains. Computerized planimetry is performed to determine the area of the internal elastic lamina (IEL), external elastic lamina (EEL) and lumen. The neointima and neointimal thickness is measured both at and between the stent struts. The vessel area is measured as the area within the EEL. Data are expressed as mean ±SEM. Statistical analysis of the histologic data is accomplished using analysis of variance (ANOVA) due to the fact that two stented arteries are measured per animal with a mean generated per animal. A P<0.05 is considered statistically significant.
A compound of formula I, e.g. 40-O-(2-hydroxyethyl)-rapamycin, is administered orally by gavage at a loading dose of 1.5 mg/kg one day prior to stenting, then dosed at 0.75 mg/kg/day from the day of stenting until day 27 post-stenting. In this model, the treatment with the compounds of formula I results in a marked reduction in the extent of restenotic lesion formation: for example, the treatment with 40-O-(2-hydroxyethyl)-rapamycin produces a significant (P<0.03) reduction in neointimal thickness (40% reduction), neointimal area (24% reduction), and percent arterial stenosis (26% reduction) with a significant 32% increase in lumen area. There is extensive neointimal formation in placebo-treated animals at 28 days, with the lesions consisting of abundant smooth muscle cells in proteoglycan/collagen matrix and apparent full endothelial healing.

Data set [3] concerns ballooned carotid of Sprague Dawley rats. Kind of data set: Inhibition of restenosis at 14 days in the rat carotid stent model, perivascular local delivery. The data set is classed as in vivo. The note with it: local perivascular administration, 10 to 200 μg/day. As for the experimental part: A.3 Inhibition of Restenosis at 14 Days in the Rat Carotid Stent Model
Male Sprague Dawley rats weighing […] are housed individually and allowed to acclimate prior to surgery. All animals receive standard rat chow and water ad libitum. Group size is 12 animals per group.
The drug(s) administration is perivascular. A segment of ballooned carotid is encircled with a 1 cm length of silastic tubing (0.25 inch inside diameter, 0.47 inch outside diameter) to which is attached a catheter which feeds into an osmotic pump containing either compound or vehicle. This delivery system provides continuous, local delivery to the adventitia of the wrapped portion of vessel. Local drug(s) administration ranges between 5 μg and 10 mg, locally per day, depending on the solubility characteristics of the individual compounds. […]
Animals are killed at 14 days post-balloon injury. […] Animals are killed by administration of an overdose of ketamine and rompun, the osmotic pumps are recovered and the volume of remaining content is recorded to ensure that pump failure has not occurred.
Carotid, arteries are excised and immersion fixed, then transferred to Ringer's solution. […] The intimal lesion area and the medial area are determined by measurement of the internal elastic lamina, the external elastic lamina and the vessel/lumen interface.

A further data set relates to dialysis patients. Description: Prevention or reduction of vascular access dysfunction after insertion of an indwelling catheter in dialysis patients. The data set is classed as in vivo, human. To be noted: daily dose 0.75 to 20 mg, 3 month treatment, observation period 6 months. As for the experimental part: A5. Prevention or Reduction of Vascular Access Dysfunction in Association with the Insertion of an Indwelling Catheter into the Vein of a Patient
One hundred fifty prospective dialysis patients, who undergo successful insertion of an indwelling, large bore catheter, into a vein are selected for the study. […] In addition, patients may also be given a calcium antagonist, nitrates and/or anti-platelet agents. These drugs are administered for 3 consecutive months following catheter insertion.

Data set [4] in a line: Release of drug from coated stents in PBS or PEG/water. The data set is classed as physicochemical. To be noted: PBS pH 7.4 or PEG 400/water 40/60 v/v, 37° C., stable = less than 10% of variation of the drug release. As for the experimental part:
Four 2 cm pieces of coated stents as described above are placed into 100 ml of phosphate buffer solution (PBS) having a pH of 7.4. Another 4 pieces from each series are placed into 100 ml polyethylene glycol (PEG)/water solution (40/60 v/v, MW of PEG=400). The stent pieces are incubated at 37° C. in a shaker. The buffer and PEG solutions are changed daily and different assays are performed on the solution to determine the released 40-O-(2-hydroxyethyl)-rapamycin concentrations. Such assays can show a stable release of 40-O-(2-hydroxyethyl)-rapamycin from coated stents for more than 45 days. By the term “stable release of 40-O-(2-hydroxyethyl)-rapamycin” is meant less than 10% of variation of the drug release. Controlled release techniques used by a person skilled in the art allow an unexpected easy adaptation of the required drug release rate. Thus, by selecting appropriate amounts of reactants in the coating mixture it is possible to easily control the bioeffectiveness of the rapamycin or rapamycin derivastive coated stents.

Where [5] appears, read: oral gavage, loading 1.5 mg/kg then 0.75 mg/kg/day to day 27, 28 days post-stenting, P<0.03.

On to `CO[C@H]1C[C@@H]2CC[C@@H](C)[C@@](O)(O2)C(=O)C(=O)N2CCCC[C@H]2C(=O)O[C@H]([C@H](C)C[C@@H]2CC[C@@H](OCCO)[C@H](OC)C2)CC(=O)[C@H](C)/C=C(\C)[C@@H](O)[C@@H](OC)C(=O)[C@H](C)C[C@H](C)/C=C/C=C/C=C/1C` [40-O-(2-hydroxyethyl)-rapamycin], for which the “neointimal lesion formation at 28 days following balloon injury” value in data set [1] (oral daily dosing from 3 days prior to surgery for 31 days, 0.5 to 2.0 mg/kg) was “significantly reduce neointimal lesion formation”. Further, in data set [1] (0.5 mg/kg), the “percent inhibition of neointimal lesion formation” value turned out to be 31%. For the same compound, the “percent inhibition of neointimal lesion formation” value in data set [1] (2.0 mg/kg) was 39%. For the same compound, the “histology of the intima of stented arterial segments” value in data set [2] (majority of arterial segments, 28 days post-stenting) is listed as “the intima is well healed”. The “endothelialization of stented arteries (scanning electron microscopic analysis)” value in data set [2] (n=4 arteries, 28 days post-stenting) is reported as 84%. The “increase in lumen area” value in data set [2] (oral gavage, loading 1.5 mg/kg then 0.75 mg/kg/day to day 27, 28 days post-stenting) was found to be 32%. In addition, in data set [2] (setting [5]), the “reduction in neointimal area” value was 24%, the “reduction in neointimal thickness” value is listed as 40% and the “reduction in percent arterial stenosis” value came out at 26%. The “neointimal lesion formation at 14 days post ballooning” value in data set [3] is “reduces neointimal lesion formation”. For the same compound, the “prevention or reduction of vascular access dysfunction” value with dialysis patients is reported as “demonstrate the efficacy”. In addition, the “duration of stable release from coated stents” value in data set [4] is listed as “more than 45 days”.
